In general, Papp A→B refers to how fast a substance crosses the layer from the apical side. For orientation: Papp B→A means the apparent permeability from the basolateral to the apical side of a cell layer.

Each structure is given as a SMILES string.

Series [1] can be described thus: Apparent permeability from apical to basolateral side of MDCK cells at 2 uM by LC-MS/MS analysis. It is filed as ADME, cell-based, Canis lupus familiaris. The following applies: dog.
Series [2] is described as follows: Apparent permeability from basolateral to apical side of MDCK cells at 2 uM by LC-MS/MS analysis. It is filed as ADME, cell-based, Canis lupus familiaris. The note with it: dog.

In the case of `CC(=O)N1CCN(c2ccc(CN(C3CCC3)S(=O)(=O)Cc3ccccc3)cc2)CC1`, the apical-to-basolateral permeability (Papp A→B) at 2 µM in series [1] amounted to 24 ×10⁻⁶ cm/s. In addition, the Papp B→A at 2 µM in series [2] was determined as 24 ×10⁻⁶ cm/s.

As for `CC(C)CN(Cc1ccc(-c2ccc(S(C)(=O)=O)cc2)cc1)S(=O)(=O)Cc1ccccc1`, the apical-to-basolateral permeability (Papp A→B) at 2 µM in series [1] came to 3 ×10⁻⁶ cm/s. In addition, the Papp B→A at 2 µM in series [2] worked out at 2 ×10⁻⁶ cm/s.

The values are drawn from ChEMBL document CHEMBL3352759, “Reduction in lipophilicity improved the solubility, plasma-protein binding, and permeability of tertiary sulfonamide RORc inverse agonists” (Bioorg Med Chem Lett, 2014).
